Type in all cases: cell-based
The subject of test [1] is Staphylococcus aureus ATCC 6538P. As to the kind of experiment: MIC, Staphylococcus aureus ATCC 6538P (SA(1)). The settings on record: Staphylococcus aureus ATCC 6538P; for MIC: Staphylococcus aureus, ATCC6538P, read-out: MIC SA (1). The source says:
(§1) The minimum inhibitory concentrations (MIC: mcg/ml) of the erythromycin derivatives of the present invention and the control erythromycin derivative (*) as the known growth promoting agent on typical test bacteria are shown in the following Tables 1 to 5.
SA(1): Staphylococcus aureus ATCC 6538P

Test [2] concerns Staphylococcus aureus FDA 209P. As to the kind of experiment: MIC, Staphylococcus aureus FDA 209P (SA(2)). The settings on record: Staphylococcus aureus FDA 209P; for MIC: Staphylococcus aureus, FDA209P, read-out: MIC SA (2).
From the text: as §1
SA(2): Staphylococcus aureus FDA 209P

The test system of another test is Bacillus subtilis. As to the kind of experiment: MIC, Bacillus subtilis (BS). The following applies: for MIC: read-out: MIC BS.
The subject of a further test is Bacillus cereus IFO 3001. As to the kind of experiment: MIC, Bacillus cereus IFO 3001 (BC). The following applies: for MIC: Bacillus cereus, IFO3001, Bacillus cereus IFO 3001, read-out: MIC BC.
For the next test, the system named is Escherichia coli NIHJ. As to the kind of experiment: MIC, Escherichia coli NIHJ (EC).
Test [3] concerns Klebsiella pneumoniae ATCC 10031. As to the kind of experiment: MIC, Klebsiella pneumoniae ATCC 10031 (KP). The following applies: Klebsiella pneumoniae ATCC 10031; for MIC: ATCC10031, read-out: MIC KP.

As to `CCC1OC(=O)C(C)C(OC2CC(C)(OC)C(O)C(C)O2)C(C)C(OC2OC(C)CC(N(C)CCO)C2O)C2(C)CC(C)=C(O2)C(C)C(O)C1(C)O` (stereo not drawn) [Compound 37], the MIC (in test [1]; in test [2]; with Bacillus subtilis; in the test with Bacillus cereus IFO 3001; in the test on Escherichia coli NIHJ; in test [3]) was over 100 µg/mL each time.

Turning to `C=CCN(CC=C)C1CC(C)OC(OC2C(C)C(OC3CC(C)(OC)C(O)C(C)O3)C(C)C(=O)OC(CC)C(C)(O)C(O)C(C)C3=C(C)CC2(C)O3)C1O` (stereo not drawn) [Compound 38], the MIC (in test [1]; in test [2]; in the test with Bacillus subtilis; with Bacillus cereus IFO 3001; with Escherichia coli NIHJ; in test [3]) was over 100 µg/mL in each case.

Turning to `C=CCNC1CC(C)OC(OC2C(C)C(OC3CC(C)(OC)C(O)C(C)O3)C(C)C(=O)OC(CC)C(C)(O)C(O)C(C)C3=C(C)CC2(C)O3)C1O` (stereo not drawn) [Compound 39], the MIC (in test [1]; in test [2]; in the test on Bacillus subtilis; with Bacillus cereus IFO 3001; against Escherichia coli NIHJ; in test [3]) was over 100 µg/mL each time.

As for `C#CCN(CC#C)C1CC(C)OC(OC2C(C)C(OC3CC(C)(OC)C(O)C(C)O3)C(C)C(=O)OC(CC)C(C)(O)C(O)C(C)C3=C(C)CC2(C)O3)C1O` (stereo not drawn) [Compound 40], the MIC (in test [1]; in test [2]; in the test with Bacillus subtilis; in the test on Bacillus cereus IFO 3001; in the test on Escherichia coli NIHJ; in test [3]) was over 100 µg/mL each time.

Turning to `C#CCNC1CC(C)OC(OC2C(C)C(OC3CC(C)(OC)C(O)C(C)O3)C(C)C(=O)OC(CC)C(C)(O)C(O)C(C)C3=C(C)CC2(C)O3)C1O` (stereo not drawn) [Compound 41], the minimum inhibitory concentration (MIC) (in test [1]; in test [2]; in the test with Bacillus subtilis; with Bacillus cereus IFO 3001; against Escherichia coli NIHJ; in test [3]) was over 100 µg/mL throughout.

Turning to `C#CCN(CC=C)C1CC(C)OC(OC2C(C)C(OC3CC(C)(OC)C(O)C(C)O3)C(C)C(=O)OC(CC)C(C)(O)C(O)C(C)C3=C(C)CC2(C)O3)C1O` (stereo not drawn) [Compound 42], the MIC (in test [1]; in test [2]; with Bacillus subtilis; with Bacillus cereus IFO 3001; against Escherichia coli NIHJ; in test [3]) was over 100 µg/mL each time.

For `C=CC[N+](C)(CC=C)C1CC(C)OC(OC2C(C)C(OC3CC(C)(OC)C(O)C(C)O3)C(C)C(=O)OC(CC)C(C)(O)C(O)C(C)C3=C(C)CC2(C)O3)C1O` (stereo not drawn) [Compound 43], the MIC in test [1] was 100 µg/mL; in test [2] it was 100 µg/mL; in the test with Bacillus subtilis it was over 100 µg/mL; in the test with Bacillus cereus IFO 3001 it was over 100 µg/mL; against Escherichia coli NIHJ, over 100 µg/mL; in test [3] it was over 100 µg/mL.

Turning to `C#CC[N+](C)(CC=C)C1CC(C)OC(OC2C(C)C(OC3CC(C)(OC)C(O)C(C)O3)C(C)C(=O)OC(CC)C(C)(O)C(O)C(C)C3=C(C)CC2(C)O3)C1O` (stereo not drawn) [Compound 44], the MIC in test [1] is over 100 µg/mL; in test [2], 100 µg/mL; with Bacillus subtilis, over 100 µg/mL; in the test on Bacillus cereus IFO 3001, over 100 µg/mL; in the test on Escherichia coli NIHJ it was over 100 µg/mL; in test [3], over 100 µg/mL.

For `C#CC[N+](C)(CC#C)C1CC(C)OC(OC2C(C)C(OC3CC(C)(OC)C(O)C(C)O3)C(C)C(=O)OC(CC)C(C)(O)C(O)C(C)C3=C(C)CC2(C)O3)C1O` (stereo not drawn) [Compound 45], the MIC was 100 µg/mL in test [1]; 100 µg/mL in test [2]; over 100 µg/mL in the test on Bacillus subtilis; over 100 µg/mL in the test on Bacillus cereus IFO 3001; over 100 µg/mL in the test with Escherichia coli NIHJ; over 100 µg/mL in test [3].

Turning to `C=CC[N+](CC=C)(CC=C)C1CC(C)OC(OC2C(C)C(OC3CC(C)(OC)C(O)C(C)O3)C(C)C(=O)OC(CC)C(C)(O)C(O)C(C)C3=C(C)CC2(C)O3)C1O` (stereo not drawn) [Compound 46], the MIC (in test [1]; in test [2]; with Bacillus subtilis; with Bacillus cereus IFO 3001; with Escherichia coli NIHJ; in test [3]) was over 100 µg/mL each time.

For the molecule `C#CC[N+](CC=C)(CC=C)C1CC(C)OC(OC2C(C)C(OC3CC(C)(OC)C(O)C(C)O3)C(C)C(=O)OC(CC)C(C)(O)C(O)C(C)C3=C(C)CC2(C)O3)C1O` (stereo not drawn) [Compound 47], the minimum inhibitory concentration (MIC) in test [1] was 100 µg/mL; in test [2], 100 µg/mL; in the test on Bacillus subtilis it was 100 µg/mL; with Bacillus cereus IFO 3001, 50 µg/mL; against Escherichia coli NIHJ it was over 100 µg/mL; in test [3], over 100 µg/mL.

`C#CC[N+](CC#C)(CC#C)C1CC(C)OC(OC2C(C)C(OC3CC(C)(OC)C(O)C(C)O3)C(C)C(=O)OC(CC)C(C)(O)C(O)C(C)C3=C(C)CC2(C)O3)C1O` (stereo not drawn) [Compound 48]: the MIC in test [1] was 100 µg/mL; in test [2], 100 µg/mL; in the test with Bacillus subtilis, 100 µg/mL; in the test on Bacillus cereus IFO 3001 it was 100 µg/mL; in the test with Escherichia coli NIHJ, over 100 µg/mL; in test [3], over 100 µg/mL.

For the molecule `CCCC[N+](C)(C)C1CC(C)OC(OC2C(C)C(OC3CC(C)(OC)C(O)C(C)O3)C(C)C(=O)OC(CC)C(C)(O)C(O)C(C)C3=C(C)CC2(C)O3)C1O` (stereo not drawn) [Compound 49], the MIC is 100 µg/mL in test [1]; 100 µg/mL in test [2]; over 100 µg/mL in the test with Bacillus subtilis; over 100 µg/mL with Bacillus cereus IFO 3001; over 100 µg/mL in the test on Escherichia coli NIHJ; over 100 µg/mL in test [3].

Take `C#CC[N+](C)(C)C1CC(C)OC(OC2C(C)C(OC3CC(C)(OC)C(O)C(C)O3)C(C)C(=O)OC(CC)C(C)(O)C(O)C(C)C3=C(C)CC2(C)O3)C1O` (stereo not drawn) [Compound 51]: the “MIC SA (1)” value in test [1] was over 100 µg/mL. In addition, the “MIC SA (2)” value in test [2] is over 100 µg/mL. Also, the “MIC BS” value with Bacillus subtilis was over 100 µg/mL. Moreover, the “MIC BC” value in the test with Bacillus cereus IFO 3001 (Bacillus cereus IFO 3001) was over 100 µg/mL. Further, the “MIC EC” value in the test on Escherichia coli NIHJ was over 100 µg/mL. The “MIC KP” value in test [3] was over 100 µg/mL.

`CCC1OC(=O)C(C)C(OC2CC(C)(OC)C(O)C(C)O2)C(C)C(OC2OC(C)CC(NC)C2O)C2(C)CC(C)=C(O2)C(C)C(OC(C)=O)C1(C)OC(C)=O` (stereo not drawn) [Compound 52]: the MIC (in test [1]; in test [2]; in the test on Bacillus subtilis; in the test with Bacillus cereus IFO 3001; with Escherichia coli NIHJ; in test [3]) was over 100 µg/mL each time.

For `CCC1OC(=O)C(C)C(OC2CC(C)(OC)C(O)C(C)O2)C(C)C(OC2OC(C)CC(N(C)CC)C2O)C2(C)CC(C)=C(O2)C(C)C(OC(C)=O)C1(C)OC(C)=O` (stereo not drawn) [Compound 53], the MIC (in test [1]; in test [2]; in the test with Bacillus subtilis; in the test with Bacillus cereus IFO 3001; in the test on Escherichia coli NIHJ; in test [3]) was over 100 µg/mL in each case.

For the molecule `CCC1OC(=O)C(C)C(OC2CC(C)(OC)C(O)C(C)O2)C(C)C(OC2OC(C)CC(N(C)CC)C2O)C2(C)CC(C)=C(O2)C(C)C2OC(=O)OC12C` (stereo not drawn) [Compound 54], the MIC (in test [1]; in test [2]; with Bacillus subtilis; in the test with Bacillus cereus IFO 3001; in the test with Escherichia coli NIHJ; in test [3]) was over 100 µg/mL in each case.

With `C#CC[N+](C)(C)C1CC(C)OC(OC2C(C)C(OC3CC(C)(OC)C(O)C(C)O3)C(C)C(=O)OC(CC)C3(C)OC(C)(C)OC3C(C)C3=C(C)CC2(C)O3)C1O` (stereo not drawn) [Compound 55], the MIC in test [1] was 12.5 µg/mL; in test [2], 12.5 µg/mL; in the test on Bacillus subtilis, 12.5 µg/mL; with Bacillus cereus IFO 3001, 12.5 µg/mL; in the test with Escherichia coli NIHJ, over 100 µg/mL; in test [3], over 100 µg/mL.

In the case of `C#CC[N+](C)(C)C1CC(C)OC(OC2C(C)C(OC3CC(C)(OC)C(O)C(C)O3)C(C)C(=O)OC(CC)C3(C)OB(c4ccccc4)OC3C(C)C3=C(C)CC2(C)O3)C1O` (stereo not drawn) [Compound 56], the MIC in test [1] is 50 µg/mL; in test [2], 100 µg/mL; in the test with Bacillus subtilis, 50 µg/mL; in the test on Bacillus cereus IFO 3001 it was 100 µg/mL; in the test with Escherichia coli NIHJ it was over 100 µg/mL; in test [3] it was over 100 µg/mL.

As for `C#CC[N+](C)(C)C1CC(C)OC(OC2C(C)C(OC3CC(C)(OC)C(O)C(C)O3)C(C)C(=O)OC(CC)C3(C)OC(=O)OC3C(C)C3=C(C)CC2(C)O3)C1O` (stereo not drawn) [Compound 57], the MIC is 25 µg/mL in test [1]; 50 µg/mL in test [2]; 50 µg/mL in the test with Bacillus subtilis; 25 µg/mL in the test with Bacillus cereus IFO 3001; over 100 µg/mL in the test on Escherichia coli NIHJ; over 100 µg/mL in test [3].

Take `CC[C@H]1OC(=O)[C@H](C)[C@@H](O[C@H]2C[C@@](C)(OC)[C@@H](OC=O)[C@H](C)O2)[C@H](C)[C@@H](O[C@@H]2O[C@H](C)C[C@H]([N+](C)(C)C)[C@H]2O)[C@@]2(C)CC(C)=C(O2)[C@H](C)[C@@H](O)[C@]1(C)O` [Compound 58]: the MIC (in test [1]; in test [2]; with Bacillus subtilis; in the test with Bacillus cereus IFO 3001; against Escherichia coli NIHJ; in test [3]) was over 100 µg/mL throughout.

As to `CC[C@H]1OC(=O)[C@H](C)[C@@H](O[C@H]2C[C@@](C)(OC)[C@@H](OC=O)[C@H](C)O2)[C@H](C)[C@@H](O[C@@H]2O[C@H](C)C[C@H]([N+](C)(C)CC)[C@H]2O)[C@@]2(C)CC(C)=C(O2)[C@H](C)[C@@H](O)[C@]1(C)O` [Compound 59], the MIC (in test [1]; in test [2]; in the test with Bacillus subtilis; in the test with Bacillus cereus IFO 3001; in the test on Escherichia coli NIHJ; in test [3]) was over 100 µg/mL each time.

A word on the MIC: it is the lowest concentration found to suppress growth.

For the origin of these results see patent US4948782A, “A method of promoting the growth of domestic animals with erythromycin derivative containing composition” (Kitasato Kenkyusho, priority 1987, dated 1990).
